Data taken from Sander's compilation of Henry's law constants (doi:10.1002/jsfa.1137).

Assay: Henry solubility constant Hcp at 310 K (mol/(m3 Pa))
Details: reference: van Ruth et al. (2002)

| Compound | Henry solubility constant Hcp at 310 K |
| --- | --- |
| CCCCCCO [1-hexanol] | 0.25 |
| CCCO [1-propanol] | 0.32 |
| CCCCCCCCC(C)=O [2-decanone] | 0.018 |
| CCCCCC(C)=O [2-heptanone] | 0.039 |
| CCCCCCCC(C)O (stereo not given) [2-nonanol] | 0.065 |
| CCCCCCC(C)=O [2-octanone] | 0.029 |
| CCCC(C)O (stereo not given) [2-pentanol] | 0.3 |
| CC(C)CCO [3-methyl-1-butanol] | 0.33 |
| CCCCOC(C)=O [butyl ethanoate] | 0.028 |
| CSC [dimethyl sulfide] | 0.0064 |
| CCCC(=O)OCC [ethyl butanoate] | 0.021 |
| CCOC(C)=O [ethyl ethanoate] | 0.039 |
| CCCCCCC=O [heptanal] | 0.02 |
| CCCCCCCC=O [octanal] | 0.021 |
| CCCOC(C)=O [propyl ethanoate] | 0.039 |
